The numbers were not newly measured in US10773008B2, “Medicated patch for preventing exit site infections during peritoneal dialysis” (Universiti Brunei Darussalam, priority 2016, dated 2020), which cites them from elsewhere.

Structures are written as SMILES.

The conditions of series [1]: topical mupirocin.
The conditions of series [2]: in vivo.
Assay in series [3]: not given
The source holds these as a separate data set.

Consider `C/C(=C\C(=O)OCCCCCCCCC(=O)O)C[C@@H]1OC[C@H](C[C@@H]2O[C@H]2[C@@H](C)[C@H](C)O)[C@@H](O)[C@H]1O` [mupirocin], for which the “log P” value is reported as 2.45. In addition, in series [1], the bioavailability is 0.24%. For the same molecule, the half-life in series [2] is 20 to 40 min. Further, the PKa in series [3] is listed as 4.83.

As usually defined, the bioavailability is dose-corrected exposure relative to a reference, in per cent. A word on the half-life: it is the time needed for the level to fall by half in the phase considered. The term log P denotes a log measure of how a compound divides between an organic and an aqueous phase.
